Measured values reported in patent US20240417371A1, “CANNABIDIOL DERIVATIVE, AND PREPARATION METHOD THEREFOR AND USE THEREOF” (priority 2021, published 2024).

Tests used:
γ-aminobutyric acid = assay: Content of γ-aminobutyric acid in homogenate of brain tissues of rats (kit method); assay type: in vivo, Wistar rats; conditions: PTZ rats after 14 days, 100 mg/kg intragastric (positive drug = valproate)
Procedure: (§1) 5. Determination of Contents of γ-Aminobutyric Acid, Glutamic Acid, Glycine, and Aspartic Acid in Rat Brain Tissue by the Kit Method
(§2) The experimental procedures and methods were referred to the kit instructions.
(§3) The contents of excitatory amino acids (glutamic acid and aspartic acid) and inhibitory neurotransmitters (γ-aminobutyric acid and glycine) in the homogenate of brain tissues were determined by an ELISA kit.

Bax = assay: WB detection of apoptosis-related protein Bax in hippocampal tissues of PTZ-kindling rats; assay type: in vivo, Wistar rats; conditions: hippocampus at end of 14-day treatment, 100 mg/kg intragastric, versus model group
Procedure: (§4) At the end of the experiment, the brains and hippocampi of the laboratory animals were collected and frozen at −80° C.
(§5) 4. WB Detection of Expression of Apoptosis-Related Proteins Bax and Bcl-2 in Hippocampal Tissues of Rats:
(§6) The hippocampal tissue was cut into small pieces, the lysis buffer (protease and phosphatase inhibitors added to the lysis buffer) was added at a ratio of 150-250 μL:20 mg, and the mixture was homogenized with a homogenizer until complete lysis. The sample obtained after the lysis was centrifuged at 12,000 g at 4° C. for 15 min. The supernatant was taken, subjected to protein quantification, and stored in a refrigerator at −80° C.
(§7) • (1) Standard curve plotting: a microplate was taken, and reagents were added according to the table below. […]
(§8) About 25 μg of the protein was loaded into each well, and the loading amount can be increased according to the experiment requirements. According to the results of protein quantification, the required protein was taken and a proper amount of sample loading buffer was added. […]

aspartic acid = assay: Content of aspartic acid in homogenate of brain tissues of rats (kit method); assay type: in vivo, Wistar rats; conditions: PTZ rats after 14 days, 100 mg/kg intragastric (positive drug = valproate)
Procedure: as §1, §2, §3

[1] = test system: tyrosine hydroxylase (TH) cells in substantia nigra (SubN); assay: Tyrosine hydroxylase (TH) cells in substantia nigra (SubN) by immunohistochemistry; assay type: in vivo, C57/BL6 mice; conditions: MPTP mice, intragastric 100 mg/kg for 14 days (positive drug = amantadine 40 mg/kg)
Procedure: (§9) • (1) SPF-grade C57 mice aged 6-8 weeks were purchased and acclimatized for one week, and subsequently the modeling was started. • (2) MPTP (25 mg/kg) was intraperitoneally injected once a day for 7 consecutive days. The blank group was left untreated. • (3) After modeling, administration was started. […] The intragastric administration was performed once a day for 14 consecutive days. • (4) Behavioral test was first performed by balance beam test scoring.
5. Determination of Tyrosine Hydroxylase (TH) Cells in Substantia Nigra (SubN) by Immunohistochemistry
The tissue should be cut using sharp knives and scissors. When cutting a tissue mass, the tissue was cut by pulling backwards from the root of the knife. […] The prepared tissue mass was fixed in 10% formalin for 48 h.
The fixed tissue was washed with running water to remove residual fixing liquid and impurities. The tissue mass was dehydrated in stages with different concentrations of ethanol (50%, 70%, 85%, 95%, up to pure alcohol (absolute ethanol)), each stage for 2 h. Dehydration must be performed in a capped flask to prevent high concentrations of ethanol from absorbing moisture in the air, resulting in reduced concentrations and incomplete dehydration. The material to be preserved can remain in 70% ethanol when being dehydrated with it. For long-term preservation, an equivalent amount of glycerol can be added. […]

Bcl-2 = assay: WB detection of apoptosis-related protein Bcl-2 in hippocampal tissues of PTZ-kindling rats; assay type: in vivo, Wistar rats; conditions: hippocampus at end of 14-day treatment, 100 mg/kg intragastric
Procedure: as §4, §5, §6, §7, §8

[2] = test system: PTZ-kindling epileptic rats; assay: PTZ-kindling epilepsy model: seizure duration, Ono's grade, latency; assay type: in vivo, Wistar rats
Procedure: Wistar rats, SPF grade, weighing 240-260 g, aged 6-8 weeks, female, purchased from Shanghai Slac Laboratory Animal Co., Ltd. Feeding environment: the temperature was kept at 22±1° C., and the humidity was kept at 65%-70%, in a 12/12 hour light/dark illumination cycle, with free access to water.
After 1 week of acclimatization of all rats, modeling was started. A 1.75% PTZ solution was prepared with normal saline, and the prepared PTZ solution was injected intraperitoneally at a dose of 35 mg/kg. PTZ was injected once every other day, and behavioral changes of the rats were observed within 30 min after the PTZ injection, and the seizure grade was recorded.
During the experiment, after 11 consecutive injections of PTZ, the seizure grade was recorded. All rats had 5 consecutive recordings of grade 2 or above, and modeling for all rats was successful after 11 consecutive injections of PZT into all rats.
After the modeling was successful, the rats were randomly grouped. Treatment was started. All Wistar rats were weighed and doses for the intragastric administration were calculated.
Before the administration and on day 7 and day 14 after the administration, the prepared PTZ solution was injected intraperitoneally at a dose of 35 mg/kg 1 h after intragastric administration. Behavioral changes of the rats were observed within 30 min after the PTZ injection.
Behavioral seizure indexes before and after the administration were recorded and graded according to Ono's grading. The seizure latency, seizure grade and seizure duration were recorded.

dopamine = assay: Content of dopamine in striatum of the model of Parkinson's disease (kit method); assay type: in vivo, C57/BL6 mice; conditions: MPTP mice; intragastric 100 mg/kg for 14 days (positive drug = amantadine 40 mg/kg)
Text: After the mice were sacrificed quickly, the brains of the mice were taken and the cerebral palliums (CPs) of the mice were isolated. After exposing the brain striatum of the mice, the striatum was weighed and homogenized after adding PBS according to a proportion. The supernatant was isolated and detected for the content of dopamine in the brain striatum.

[3] = test system: mouse model of Parkinson's disease established by the intraperitoneal injection of MPTP; assay: Behavioral balance beam score in MPTP model of Parkinson's disease; assay type: in vivo, C57/BL6 mice; conditions: scale 0-5
Procedure: C57/BL6 mice, SPF grade, weighing 18-20 g, aged 6-8 weeks, male, purchased from Shanghai Slac Laboratory Animal Co., Ltd. Feeding environment: the temperature was kept at 22±1° C., and the humidity was kept at 65%-70%, in a 12/12 hour light/dark illumination cycle, with free access to water.
as §9
A beam of 80 cm long and 2.5 cm wide was horizontally fixed at a height of 10 cm from the table top, and subsequently, the animals were allowed to walk on the beam. […]

glycine = assay: Content of glycine in homogenate of brain tissues of rats (kit method); assay type: in vivo, Wistar rats; conditions: PTZ rats after 14 days, 100 mg/kg intragastric (positive drug = valproate)
Procedure: as §1, §2, §3

glutamic acid = assay: Content of glutamic acid in homogenate of brain tissues of rats (kit method); assay type: in vivo, Wistar rats; conditions: PTZ rats after 14 days, 100 mg/kg intragastric (positive drug = valproate)
Procedure: as §1, §2, §3

Solubility in water = assay type: physicochemical
Text: ^1[…]=0.8 Hz, 1[…]=7.6 Hz, 2[…]=6.8 Hz, 3H).

[4] = high-purity CBD, background statement; cited from earlier work

**Q.** Which γ-aminobutyric acid (γ-aminobutyric acid) does the source give for `C=C(C)[C@@H]1CCC(C)=C[C@H]1c1c(O)cc(CCCCC)cc1OCC(=O)N[C@@H](CCSC)C(=O)[O-].[Na+]` [Compound E1] here?
**A.** 771.17 ± 81.98 nmol/g

**Q.** And the “Bax protein expression in hippocampal tissues” value (Bax)?
**A.** significant down-regulation of Bax protein expression

**Q.** What about the Aspartic acid (aspartic acid) of the same compound?
**A.** 58.10 ± 11.71 µmol/g

**Q.** And the “TH cell positive rate” value [1]?
**A.** 16.92 ± 3.13 %

**Q.** And the “Bcl-2 protein expression in hippocampal tissues” value (Bcl-2)?
**A.** significantly higher than that in the model group

**Q.** What about the “Ono's grade before treatment” value ([2]; grade 0-6 (Table 1), baseline before treatment) of the same compound?
**A.** 3.17 ± 0.41

**Q.** And the “Ono's grade on day 7 of treatment” value ([2]; grade 0-6, intragastric 100 mg/kg (positive drug = valproate), day 7)?
**A.** 3.33 ± 0.52

**Q.** What about the “Ono's grade on day 14 of treatment” value ([2]; grade 0-6, intragastric 100 mg/kg (positive drug = valproate), day 14) of the same compound?
**A.** 3.33 ± 0.52

**Q.** What about the “Duration on day 7 of treatment” value ([2]; intragastric 100 mg/kg (positive drug = valproate 100 mg/kg), PTZ 35 mg/kg i.p. 1 h after administration, day 7) of the same compound?
**A.** 290.50 ± 66.93 s

**Q.** And the “Duration on day 14 of treatment” value ([2]; intragastric 100 mg/kg (positive drug = valproate 100 mg/kg), PTZ 35 mg/kg i.p. 1 h after administration, day 14)?
**A.** 299.67 ± 39.25 s

**Q.** What about the “Latency on day 7 of treatment” value ([2]; intragastric 100 mg/kg (positive drug = valproate), day 7) of the same compound?
**A.** 82.83 ± 20.90 s

**Q.** And the “Latency on day 14 of treatment” value ([2]; intragastric 100 mg/kg (positive drug = valproate), day 14)?
**A.** 87.00 ± 20.96 s

**Q.** What about the “change in duration of seizure on day 14 as compared to day 7 of treatment” value ([2]; intragastric 100 mg/kg, PTZ-kindling rats) of the same compound?
**A.** no change in the duration of seizure

**Q.** What about the Latency before treatment ([2]; latency to seizure after PTZ 35 mg/kg i.p., baseline before treatment) of the same compound?
**A.** 85.75 ± 21.45 s

**Q.** What about the Duration before treatment ([2]; seizure duration after PTZ 35 mg/kg i.p., baseline before treatment) of the same compound?
**A.** 359.83 ± 14.41 s

**Q.** And the “DA, content of dopamine in striatum after treatment” value (dopamine)?
**A.** 0.45 ± 0.09 # ng/mg

**Q.** What about the “behavioral balance beam score, After modeling” value ([3]; after MPTP 25 mg/kg i.p. for 7 days, before treatment) of the same compound?
**A.** 4.63 ± 0.52

**Q.** What about the “behavioral balance beam score, After treatment” value ([3]; intragastric 100 mg/kg once a day for 14 days (positive drug = amantadine 40 mg/kg)) of the same compound?
**A.** 3.75 ± 0.89

**Q.** And the Glycine (glycine)?
**A.** 0.67 ± 0.07 ng/µg

**Q.** What about the Glutamic acid (glutamic acid) of the same compound?
**A.** 0.14 ± 0.02 µmol/mg

**Q.** What about the solubility (Solubility in water) of the same compound?
**A.** 27 mg/mL

**Q.** For `C=C(C)[C@@H]1CCC(C)=C[C@H]1c1c(OCC(=O)N[C@@H](CCSC)C(=O)[O-])cc(CCCCC)cc1OCC(=O)N[C@@H](CCSC)C(=O)[O-].[Na+].[Na+]` [Compound E2], which solubility (Solubility in water) is on record?
**A.** 200 mg/mL

**Q.** With `C=C(C)[C@@H]1CCC(C)=C[C@H]1c1c(O)cc(CCCCC)cc1O` [CBD, 2-[(1R,6R)-3-methyl-6-(1-methylvinyl)-2-cyclohexen-1-yl]-5-pentyl-1,3-benzenediol] as the compound, how does the “solubility in water” value [4] read?
**A.** almost insoluble in water
